Source: patent US11780843B2, “Compounds active towards nuclear receptors” (NUEVOLUTION A/S, priority 2020, dated 2023)
pIC50: −log10 of the molar value. Where two headings read alike, the source gives them in different places.

What was measured:
[1] = molecular target: T1, RORγ ligand-binding domain (Homo sapiens, UniProt P51449); experiment: RORγ Reporter Assay (Gal4); type: cell-based
T1 construct: Gal4 (galactose-responsive transcription factor); expressed in transfected cells; host or cells: HEK293, transient co-transfection
T1 sequence (P51449 269-508 limits assumed): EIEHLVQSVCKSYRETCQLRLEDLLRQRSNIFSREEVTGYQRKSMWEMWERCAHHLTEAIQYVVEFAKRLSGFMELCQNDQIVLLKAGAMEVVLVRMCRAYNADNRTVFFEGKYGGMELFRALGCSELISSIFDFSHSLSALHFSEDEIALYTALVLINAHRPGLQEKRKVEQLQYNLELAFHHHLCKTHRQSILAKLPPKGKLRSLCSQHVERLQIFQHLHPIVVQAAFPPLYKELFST
Protocol: The HEK293 cell line is co-transfected transiently with two plasmids, one with the RORγ ligand-binding domain fused to galactose-responsive transcription factor (Ga14), and the other with the luciferase reporter gene and Gal binding sites (UAS). This construction allows to determine the RORT activity in a cellular system through the measurement of luminescence.
A suspension of RORγ reporter cells was dispensed into plates and cultured 2 h at 37° C. and 5% CO2. Media formulation consisted in DMEM/F-12 medium (Gibco) supplemented with 10% heat inactivated FBS (Sigma-Aldrich), non-essential aminoacids (Sigma-Aldrich), 2 mM Glutamax (Gibco) and 100 U/mL penicillin (Sigma-Aldrich). Dose-response curves with compounds were prepared in 100% DMSO and further diluted 100-fold in culture medium. Compound solutions were added to the plate containing cells (final DMSO concentration of 0.1%) and incubated for 24 h at 37° C. and 5% CO2. Luciferase detection reagent was added to each well, and relative light units (RLUs) were quantified from each assay well using a plate reading luminometer.
Values of average RLU±S.D. were computed for all treatment sets, followed by the calculations of percent-reduction of RORT activity in response to respective test compound. The following formula was used: activity=100*[1−[[…]] where the theoretical minimum reduction (0% reduction). […] These calculations were performed in excel-fit software using X-204 model curve.

[2] = test system: IL-17A secretion in activated PBMCs; experiment: IL-17A secretion in activated PBMCs; type: cell-based; details: human PBMCs stimulated with CD3/CD28 Dynabeads for 48 h, absolute IC50
From the text: Heparin-treated whole blood from healthy human volunteers was supplied from Hospital de Sant Pau (Barcelona) under the approval of the local ethical review board for human studies (Hospital de Sant Pau, Barcelona, Spain). Human peripheral blood mononuclear cells (PBMCs) were isolated from healthy human volunteers by density gradient centrifugation using the Ficoll-Paque (GE Healthcare). PBMCs were suspended in cell culture medium which consisted on RPMI 1640 medium (Sigma-Aldrich) containing 10% heat inactivated fetal bovine serum (Sigma-Aldrich), 2 mM L-Glutamine (Gibco), 20 mM Hepes (Gibco) and 100 U/mL penicillin (Sigma-Aldrich). Cells were seeded in 384-well plate (DiscoverX), at 40,000 cells per well and cultured 2 h at 37° C. and 5% CO2.
Dose-response curves with compounds were prepared using a 5-fold serial dilution (10 concentrations) in 100% DMSO and further diluted 100-fold in culture medium. Compound solutions (5 μL) were added to the plate containing cells (final DMSO concentration of 0.1%) and incubated for 30 min. Then, cells were stimulated with CD3/CD28 Dynabeads (ThermoFisher, at a bead-to-cell ratio of 1:1) for 48 h at 37° C. and 5% CO2.
IL-17A levels in supernatant were determined by immunoassay using hIL17A QBeads (Intellicyt) and by fluorescence analysis in iQue flow cytometer following the manufacturer's instructions. Inhibition of IL-17A secretion was calculated using the following formula: inhibition=100*[1−[(x−mean basal condition)/(mean top condition—mean basal condition)]]. Activated DMSO-treated cells were used as top condition and activated GNE09461 (10 μM)-treated cells as basal condition.

[3] = HEK293 cells, luciferase reporter, 24 h incubation, absolute IC50, read-out: IC50

Row | Compound | pIC50 [1, 3] | pIC50 ([1]; stated as a bound only (Tables 5 a, 6, 7), read-out: Gal4 assay IC50) | pIC50 ([2]; Homo sapiens, PBMC, 48 h) | pIC50 [2]
1 | CCN(Cc1ccc(C(F)(F)F)cn1)c1ncnc2c1c(F)cn2C[C@@H]1CCN(CC(N)=O)C[C@H]1O (relative stereo) [P6-28″, rel-2-((3R,4R)-4-((4-(ethyl((5-(trifluoromethyl)pyridin-2-yl)methyl)amino)-5-fluoro-7H-pyrrolo[2,3-d]pyrimidin-7-yl)methyl)-3-hydroxypiperidin-1-yl)acetamide] | 8.07 |  | 7.28 | 
2 | CCN(Cc1ccc(-n2cccn2)cc1)c1ncnc2c1ccn2C[C@@H]1CCN(CC(N)=O)C[C@H]1O (relative stereo) [P6-30″, rel-2-((3R,4R)-4-((4-((4-(1H-pyrazol-1-yl)benzyl)(ethyl)amino)-7H-pyrrolo[2,3-d]pyrimidin-7-yl)methyl)-3-hydroxypiperidin-1-yl)acetamide] | 8.19 |  | 7.00 | 
3 | NC(=O)CN1CC[C@@H](Cn2ccc3c(N(Cc4ccc(-n5cccn5)cc4)C4CC4)ncnc32)[C@H](O)C1 (relative stereo) [P6-33″, rel-2-((3R,4R)-4-((4-((4-(1H-pyrazol-1-yl)benzyl)(cyclopropyl)amino)-7H-pyrrolo[2,3-d]pyrimidin-7-yl)methyl)-3-hydroxypiperidin-1-yl)acetamide] | 8.07 |  | 8.00 | 
4 | CCN(Cc1ccc(-n2cccn2)cc1)c1ncnc2c1ccn2C[C@@]1(O)CCN(CC(N)=O)C[C@@H]1O (relative stereo) [R5-1″, rel-2-((3R,4R)-4-((4-((4-(1H-pyrazol-1-yl)benzyl)(ethyl)amino)-7H-pyrrolo[2,3-d]pyrimidin-7-yl)methyl)-3,4-dihydroxypiperidin-1-yl)acetamide] | 7.89 |  | 7.10 | 
5 | NC(=O)CN1CC[C@](O)(Cn2ccc3c(N(Cc4ccc(-n5cccn5)cc4)C4CC4)ncnc32)[C@@H](O)C1 (relative stereo) [R5-2″, Rel-2-((3R,4R)-4-((4-((4-(1H-pyrazol-1-yl)benzyl)(cyclopropyl)amino)-7H-pyrrolo[2,3-d]pyrimidin-7-yl)methyl)-3,4-dihydroxypiperidin-1-yl)acetamide] | 8.09 |  | 8.13 | 
6 | NC(=O)CN1CC[C@@H](Cn2ccc3c(N(Cc4ccc(C(F)(F)F)cn4)C4CC4)ncnc32)[C@H](O)C1 (single isomer, unassigned) [Example P6-23-1] | 8.00 |  | 7.23 | 
7 | NC(=O)CN1CC[C@@H](Cn2ccc3c(N(Cc4ccc(C(F)(F)F)cn4)C4CC4)ncnc32)[C@H](O)C1 (single isomer, unassigned) [Example P6-23-2] | 7.82 |  |  | 7.01
8 | CCN(Cc1ccc(C(F)(F)F)cc1)c1ncnc2c1ccn2C[C@@H]1CCN(CC(N)=O)C[C@H]1O (single isomer, unassigned) [Example P6-24-2] | 8.04 |  |  | 6.77
9 | CC(C)N(Cc1ccc(C(F)(F)F)cc1)c1ncnc2c1ccn2C[C@@H]1CCN(CC(N)=O)C[C@H]1O (single isomer, unassigned) [Example P6-25-1] | 7.92 |  | 6.96 | 
10 | CC(C)N(Cc1ccc(C(F)(F)F)cc1)c1ncnc2c1ccn2C[C@@H]1CCN(CC(N)=O)C[C@H]1O (single isomer, unassigned) [Example P6-25-2] | 7.52 |  |  | 6.89
11 | NC(=O)CN1CC[C@@H](Cn2cnc3c(N(Cc4ccc(C(F)(F)F)cc4)C4CC4)ncnc32)[C@H](O)C1 (single isomer, unassigned) [Example P6-26-2] | 8.30 |  | 7.19 | 

The next lines start with results.

Row | pIC50 [1, 3] | pIC50 ([1]; stated as a bound only (Tables 5 a, 6, 7), read-out: Gal4 assay IC50) | Compound | pIC50 ([2]; Homo sapiens, PBMC, 48 h) | pIC50 [2]
12 | 8.72 |  | CCN(Cc1ccc(C(F)(F)F)c(F)c1)c1ncnc2c1ccn2C[C@@H]1CCN(CC(N)=O)C[C@H]1O (relative stereo) [P6-31″, rel-2-((3R,4R)-4-((4-(ethyl(3-fluoro-4-(trifluoromethyl)benzyl)amino)-7H-pyrrolo[2,3-d]pyrimidin-7-yl)methyl)-3-hydroxypiperidin-1-yl)acetamide] | 8.22 | 
13 | 8.70 |  | CCN(Cc1ccc(C(F)(F)F)cc1F)c1ncnc2c1ccn2C[C@@H]1CCN(CC(N)=O)C[C@H]1O (relative stereo) [P6-32″, rel-2-((3R,4R)-4-((4-(ethyl(2-fluoro-4-(trifluoromethyl)benzyl)amino)-7H-pyrrolo[2,3-d]pyrimidin-7-yl)methyl)-3-hydroxypiperidin-1-yl)acetamide] | 8.08 | 
14 | 8.40 |  | Cn1cc(-c2ccc(CN(c3ncnc4c3ccn4C[C@@]3(O)CCN(CC(N)=O)C[C@@H]3O)C3CC3)c(F)c2)cn1 (relative stereo) [R5-3″, rel-2-((3R,4R)-4-((4-(cyclopropyl(2-fluoro-4-(1-methyl-1H-pyrazol-4-yl)benzyl)amino)-7H-pyrrolo[2,3-d]pyrimidin-7-yl)methyl)-3,4-dihydroxypiperidin-1-yl)acetamide] | 7.96 | 
15 | 8.37 |  | NC(=O)CN1CC[C@](O)(Cn2ccc3c(N(Cc4ccc(-n5cccn5)cc4F)C4CC4)ncnc32)[C@@H](O)C1 (relative stereo) [R5-4″, rel-2-((3R,4R)-4-((4-(cyclopropyl(2-fluoro-4-(1H-pyrazol-1-yl)benzyl)amino)-7H-pyrrolo[2,3-d]pyrimidin-7-yl)methyl)-3,4-dihydroxypiperidin-1-yl)acetamide] | 7.66 | 
16 | 8.70 |  | NC(=O)CN1CC[C@](O)(Cn2ccc3c(N(Cc4ccc(C(F)(F)F)cc4)C4CC4)ncnc32)[C@@H](O)C1 (single isomer, unassigned) [Example L5-1-1-2] |  | 8.64
17 | 8.85 |  | CCN(Cc1ccc(C(F)(F)F)cc1)c1ncnc2c1ccn2C[C@@]1(O)CCN(CC(N)=O)C[C@@H]1O (single isomer, unassigned) [Example L5-2-1-1] |  | 8.57
18 | 8.70 |  | CCN(Cc1ccc(C(F)(F)F)cc1)c1ncnc2c1ccn2C[C@@]1(O)CCN(CC(N)=O)C[C@@H]1O (single isomer, unassigned) [Example L5-2-1-2] | 8.51 | 
19 | 8.52 |  | CCN(Cc1ccc(C(F)(F)F)cc1F)c1ncnc2c1ccn2C[C@@]1(O)CCN(CC(N)=O)C[C@@H]1O (single isomer, unassigned) [Example L5-3-1-1] | 8.01 | 
20 | 8.36 |  | CCN(Cc1ccc(C(F)(F)F)cc1F)c1ncnc2c1ccn2C[C@@]1(O)CCN(CC(N)=O)C[C@@H]1O (single isomer, unassigned) [Example L5-3-1-2] |  | 8.00
21 | 8.80 | > 7.00 | NC(=O)CN1CC[C@@H](Cn2ccc3c(N(Cc4ccc(C(F)(F)F)cc4)C4CC4)ncnc32)[C@H](O)C1 (single isomer, unassigned) [Example P6-13-1] | 8.96 | 
22 | 8.70 |  | NC(=O)CN1CC[C@@H](Cn2ccc3c(N(Cc4ccc(C(F)(F)F)cc4)C4CC4)ncnc32)[C@H](O)C1 (single isomer, unassigned) [Example P6-13-2] |  | 8.89
23 | 8.42 |  | NC(=O)CN1CC[C@@H](Cn2cc(F)c3c(N(Cc4ccc(C(F)(F)F)cc4)C4CC4)ncnc32)[C@H](O)C1 (single isomer, unassigned) [Example P6-14-1] |  | 7.74
24 | 9.00 |  | NC(=O)CN1CC[C@@H](Cn2cc(F)c3c(N(Cc4ccc(C(F)(F)F)cc4)C4CC4)ncnc32)[C@H](O)C1 (single isomer, unassigned) [Example P6-14-2] |  | 8.77
25 | 8.31 |  | CCN(Cc1ccc(C(F)(F)F)cc1)c1ncnc2c1ccn2C[C@@H]1CCN(CC(N)=O)C[C@H]1O (single isomer, unassigned) [Example P6-24-1] |  | 8.00
